Read-outs that look alike come from different tables or passages of the source.
Experiments:
miR-124 = experiment: Up-regulation of miR-124 in CD3/CD28 antibody-activated T cells (SYBR green fluorescence quantitative PCR); assay type: cell-based; settings: T-cell, 72 h; activated human T cells, final compound concentration 1 µM, 3 days; relative to DMSO, U6 internal reference; read-out: up-regulated miR-124 (relative expression level)
Experimental: The effect of the compound on miR-124 expression levels was assessed in CD3/CD28 antibody-activated T cells. After the activated T cells were treated with the compound, the total cellular RNA was extracted, the cDNA obtained from reverse transcription was used as a template, and quantification was performed by using an SYBR green fluorescence quantitative PCR method and a specific miR-124 primer.
Isolation of T cells: The purchased human peripheral blood mononuclear cells (PBMCs) were counted, filtered, and then washed once with a separation buffer (PBS, pH 7.4, containing 0.5% BSA and 2 mM EDTA), and the supernatant was discarded. Various components were added in such a manner that for every 1 × 10^7 cells, 40 µL of buffer and 10 µL of pan T Cell Biotin-Antibody Cocktail were added. The pellets were resuspended and well mixed, and the suspension was incubated in a refrigerator at 4 °C for 5 min. After the incubation was completed, various components were added in such a manner that for every 1 × 10^7 cells, 30 µL of buffer and 20 µL of Pan T Cell MicroBeads Cocktail were added. After thorough mixing, the mixture was incubated in a refrigerator at 4 °C for 10 min. […] The cells were counted and added at a density of 1 × 10^6 cells/mL to an RPMI1640 culture medium (complete culture medium) containing 10% FBS and 40 U/mL IL-2, and the mixture was stored on ice for later use. […]

[1] = Influencing factors stability test (light exposure, high temperature, high humidity); assay type: physicochemical; settings: for remaining at 120 h / remaining at 240 h / remaining at 720 h: solid storage, read-out: Purity%
Description: Table 11. The influencing factor stability of the crystal form

[2] = Long-term accelerated stability tests; assay type: physicochemical; settings: for Purity (%): Initial; for Crystal form: up to 6 months
Description: Table 12. The long-term accelerated stability of the crystal form

[3] = DVS (dynamic vapor sorption) hygroscopicity testing; assay type: physicochemical
Experimental: DVS refers to dynamic vapor sorption: Surface Measurement Systems instrinsic was adopted; the humidity started at 50%, the humidity range of the investigation was 0%-95%, and the humidity was increased in increments of 10%; the criterion was that each gradient mass change dM/dT is ≤ 0.002%, TMAX 360 min, two cycles.

[4] = Light exposure (4500 Lux), 5 days
[5] = Light exposure (4500 Lux), 10 days
[6] = Light exposure (4500 Lux), 30 days

Q: Which fold induction at 1 µM (miR-124) does the source give for `FC1(F)Oc2ccc(Nc3ccc4cccc(Cl)c4n3)cc2O1` [Compound 1, 8-Chloro-N-(2,2-difluorobenzo[d][1,3]dioxol-5-yl)quinolin-2-amine] here?
A: 3.9

Q: For `FC1(F)Oc2ccc(Nc3ccc4cccc(Cl)c4n3)cc2O1` [crystal form A, 8-chloro-N-(2,2-difluorobenzo[d][1,3]dioxol-5-yl)quinolin-2-amine], which Color and state ([1]; 40°C, 5 days) is on record?
A: Off-white solid

Q: And the Crystal form ([1]; 40°C, 5 days)?
A: Did not change

Q: What about the Color and state ([1]; 40°C, 10 days) of the same compound?
A: Off-white solid

Q: What about the Crystal form ([1]; 40°C, 10 days) of the same compound?
A: Did not change

Q: And the Color and state ([1]; 40°C, 30 days)?
A: Off-white solid

Q: What about the Crystal form ([1]; 40°C, 30 days) of the same compound?
A: Did not change

Q: What about the Color and state ([1]; 60°C, 5 days) of the same compound?
A: Off-white solid

Q: What about the Crystal form ([1]; 60°C, 5 days) of the same compound?
A: Did not change

Q: What about the Color and state ([1]; 60°C, 10 days) of the same compound?
A: Off-white solid

Q: What about the Crystal form ([1]; 60°C, 10 days) of the same compound?
A: Did not change

Q: And the Color and state ([1]; 60°C, 30 days)?
A: Off-white solid

Q: And the Crystal form ([1]; 60°C, 30 days)?
A: Did not change

Q: And the Color and state ([1]; 75% RH, 5 days)?
A: Off-white solid

Q: What about the Crystal form ([1]; 75% RH, 5 days) of the same compound?
A: Did not change

Q: What about the Color and state ([1]; 75% RH, 10 days) of the same compound?
A: Off-white solid

Q: What about the Crystal form ([1]; 75% RH, 10 days) of the same compound?
A: Did not change

Q: What about the Color and state ([1]; 75% RH, 30 days) of the same compound?
A: Off-white solid

Q: What about the Crystal form ([1]; 75% RH, 30 days) of the same compound?
A: Did not change

Q: And the Color and state ([1]; 92.5% RH, 5 days)?
A: Off-white solid

Q: And the Crystal form ([1]; 92.5% RH, 5 days)?
A: Did not change

Q: What about the Color and state ([1]; 92.5% RH, 10 days) of the same compound?
A: Off-white solid

Q: And the Crystal form ([1]; 92.5% RH, 10 days)?
A: Did not change

Q: What about the Color and state ([1]; 92.5% RH, 30 days) of the same compound?
A: Off-white solid

Q: What about the Crystal form ([1]; 92.5% RH, 30 days) of the same compound?
A: Did not change

Q: And the Color and state ([1]; Initial, 0 days)?
A: Off-white solid

Q: What about the Crystal form ([1]; Initial, 0 days) of the same compound?
A: Crystal form A

Q: What about the Purity (%) ([1]; Initial, 0 days) of the same compound?
A: 100.0%

Q: And the Color and state [1, 4]?
A: Off-white solid

Q: And the Crystal form [1, 4]?
A: Did not change

Q: And the Color and state [1, 5]?
A: Off-white solid

Q: What about the Crystal form [1, 5] of the same compound?
A: Did not change

Q: What about the Color and state [1, 6] of the same compound?
A: Off-white solid

Q: What about the Crystal form [1, 6] of the same compound?
A: Did not change

Q: And the “physical and chemical stability (conclusion)” value ([1]; light exposure, 40 °C and 60 °C, 75% and 92.5% humidity, 30 days)?
A: both good physical stability and good chemical stability

Q: And the remaining at 120 h ([1]; 40°C, 5 days)?
A: 100%

Q: And the remaining at 240 h ([1]; 40°C, 10 days)?
A: 100%

Q: What about the remaining at 720 h ([1]; 40°C, 30 days) of the same compound?
A: 100%

Q: And the remaining at 120 h ([1]; 60°C, 5 days)?
A: 100%

Q: And the remaining at 240 h ([1]; 60°C, 10 days)?
A: 100%

Q: What about the remaining at 720 h ([1]; 60°C, 30 days) of the same compound?
A: 100%

Q: And the remaining at 120 h ([1]; 75% RH, 5 days)?
A: 100%

Q: What about the remaining at 240 h ([1]; 75% RH, 10 days) of the same compound?
A: 100%

Q: What about the remaining at 720 h ([1]; 75% RH, 30 days) of the same compound?
A: 100%

Q: And the remaining at 120 h ([1]; 92.5% RH, 5 days)?
A: 100%

Q: What about the remaining at 240 h ([1]; 92.5% RH, 10 days) of the same compound?
A: 100%

Q: What about the remaining at 720 h ([1]; 92.5% RH, 30 days) of the same compound?
A: 100%

Q: And the remaining at 120 h [1, 4]?
A: 100%

Q: What about the remaining at 240 h [1, 5] of the same compound?
A: 100%

Q: What about the remaining at 720 h [1, 6] of the same compound?
A: 99.9%

Q: And the “Purity (%)” value ([2]; 25 °C, 60% RH)?
A: 100.0%

Q: And the Crystal form ([2]; 25 °C, 60% RH)?
A: Did not change

Q: What about the “physical and chemical stability (conclusion)” value ([2]; 25 °C/60% RH and 40 °C/75% RH, 6 months) of the same compound?
A: both good physical stability and good chemical stability

Q: What about the “Purity (%)” value ([2]; 40 °C, 75% RH) of the same compound?
A: 100.0%

Q: And the Crystal form ([2]; 40 °C, 75% RH)?
A: Did not change

Q: What about the remaining at 720 h ([2]; solid storage, 25 °C, 60% RH, 1M, read-out: Purity (%)) of the same compound?
A: 100%

Q: And the remaining at 1440 h ([2]; solid storage, 25 °C, 60% RH, 2M, read-out: Purity (%))?
A: 100%

Q: And the remaining at 2160 h ([2]; solid storage, 25 °C, 60% RH, 3M, read-out: Purity (%))?
A: 100%

Q: What about the remaining at 4320 h ([2]; solid storage, 25 °C, 60% RH, 6M, read-out: Purity (%)) of the same compound?
A: 100%

Q: And the hygroscopic weight gain ([3]; accelerated experimental conditions (70% RH))?
A: about 0.02%

Q: What about the “crystal form re-identified after DVS testing” value ([3]; after DVS testing) of the same compound?
A: the crystal form did not change

Q: What about the hygroscopic weight gain ([3]; extreme conditions (90% RH)) of the same compound?
A: about 0.18%

Q: And the hygroscopic weight gain ([3]; normal storage conditions (room temperature and 60% RH))?
A: about 0.02%

— patent publication EP4624469A1 (Jiangsu Hengrui Pharmaceuticals Co., Ltd., priority 2022, dated 2024)
